Data reported in the supplement of paper PMC10307832.

Tests used:
Assay in all cases: relative viability (nuclei count vs DMSO), 5 days (fraction); higher = more cells survive
Pemetrexed + Olaparib = compound: Nc1nc2[nH]cc(CCc3ccc(C(=O)N[C@@H](CCC(=O)O)C(=O)O)cc3)c2c(=O)[nH]1 [Pemetrexed] + O=C(c1cc(Cc2n[nH]c(=O)c3ccccc23)ccc1F)N1CCN(C(=O)C2CC2)CC1 [Olaparib] (partner 8 µM)
In short: (§1)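 Cells from lung cancer lines were seeded into 1536-well plates and, one day later, dosed by pin tool. Treatments were either a single drug or a fixed dose of an anchor drug with five library-drug doses (not always all listed) in √10 steps. After 5 days, nuclei were stained in a one-step fixation (final 0.05% Triton X-100, 1% formaldehyde, 1 ug/ml Hoechst) and counted on 4× images, and relative viability is the treated-to-vehicle nuclei ratio, as the median of duplicate plates.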

Idelalisib + Linsitinib = compound: CC[C@H](Nc1ncnc2[nH]cnc12)c1nc2cccc(F)c2c(=O)n1-c1ccccc1 [Idelalisib] + C[C@]1(O)C[C@@H](c2nc(-c3ccc4ccc(-c5ccccc5)nc4c3)c3c(N)nccn32)C1 [Linsitinib] (partner 1 µM)
In short: as §1

Pemetrexed + Bortezomib = compound: Nc1nc2[nH]cc(CCc3ccc(C(=O)N[C@@H](CCC(=O)O)C(=O)O)cc3)c2c(=O)[nH]1 [Pemetrexed] + CC(C)C[C@H](NC(=O)[C@H](Cc1ccccc1)NC(=O)c1cnccn1)B(O)O [Bortezomib] (partner 0.002 µM)
In short: as §1

Idelalisib + Tozasertib = compound: CC[C@H](Nc1ncnc2[nH]cnc12)c1nc2cccc(F)c2c(=O)n1-c1ccccc1 [Idelalisib] + Cc1cc(Nc2cc(N3CCN(C)CC3)nc(Sc3ccc(NC(=O)C4CC4)cc3)n2)n[nH]1 [Tozasertib] (partner 0.1 µM)
In short: as §1

Cell Line	relative viability (Pemetrexed + Olaparib; first compound 0.002 µM)	relative viability (Pemetrexed + Olaparib; first compound 0.006325 µM)	relative viability (Pemetrexed + Olaparib; first compound 0.02 µM)	relative viability (Pemetrexed + Olaparib; first compound 0.06325 µM)	relative viability (Pemetrexed + Olaparib; first compound 0.2 µM)	relative viability (Idelalisib + Linsitinib; first compound 0.04 µM)	relative viability (Idelalisib + Linsitinib; first compound 0.1265 µM)	relative viability (Idelalisib + Linsitinib; first compound 0.4 µM)	relative viability (Idelalisib + Linsitinib; first compound 1.265 µM)	relative viability (Idelalisib + Linsitinib; first compound 4 µM)	relative viability (Pemetrexed + Bortezomib; first compound 0.002 µM)	relative viability (Pemetrexed + Bortezomib; first compound 0.006325 µM)	relative viability (Pemetrexed + Bortezomib; first compound 0.02 µM)	relative viability (Pemetrexed + Bortezomib; first compound 0.06325 µM)	relative viability (Pemetrexed + Bortezomib; first compound 0.2 µM)	relative viability (Idelalisib + Tozasertib; first compound 0.04 µM)	relative viability (Idelalisib + Tozasertib; first compound 0.1265 µM)	relative viability (Idelalisib + Tozasertib; first compound 0.4 µM)	relative viability (Idelalisib + Tozasertib; first compound 1.265 µM)	relative viability (Idelalisib + Tozasertib; first compound 4 µM)
IA-LM	0.74	0.725	0.926	0.889	0.852	0.426	0.83	0.709	0.541	0.404	0.81	0.82	0.943	0.695	0.641					
NCI-H1793	0.868	0.712	0.912	0.919	0.774	1.02	0.852	0.505	0.797	0.582						0.344	0.311	0.222	0.229	0.225
NCI-H1792	0.44	0.405	0.397	0.497	0.46	0.242	0.498	0.508	0.443	0.461	0.931	0.969	0.966	0.943	0.927					
ChaGo-K-1	0.483	0.423	0.464	0.383	0.259						1.09	1.11	1.05	0.332	0.307	0.244	0.227	0.197	0.212	0.187
NCI-H1944	0.317	0.368	0.395	0.393	0.402	1.19	1.06	1.06	1.14	0.808						0.272	0.229	0.219	0.224	0.211
SW 900	0.871	0.797	1.07	0.621	0.494											0.69	0.539	0.542	0.605	0.594
NCI-H1623																0.393	0.429	0.443	0.431	0.388
SK-MES-1	0.603	0.708	0.821	0.649	0.627	1.02	0.984	0.934	0.855	0.703						0.972	1.05	0.955	0.964	0.931
LK-2	0.761	0.817	0.745	0.519	0.622	0.531	0.418	0.5	0.518	0.419						0.178	0.165		0.18	0.164
NCI-H358	0.582	0.622	0.66	0.397	0.151	0.805	0.794	0.638	0.64	0.637						0.106	0.0937	0.113	0.088	0.116
EBC-1	0.684	0.714	0.723	0.665	0.545	0.762	1.03	0.907	0.84	0.637	0.57	0.5	0.642	0.54	0.542					
NCI-H1703	0.485	0.379	0.671	0.381	0.385	1.31	0.976	0.669	1.2	0.474	0.277	0.224	0.605	0.248	0.271					
NCI-H1395	0.427	0.421	0.5	0.41	0.426	1.15	1.22	0.92	0.82	0.77						0.817	0.77	0.771	0.767	0.62
NCI-H1563						1.16	1.29	1.07	1.15	0.832	0.784	0.869	0.978	0.855	0.932					
NCI-H1299	0.967	0.913	0.949	0.956	0.983	1.03	1.07	0.978	0.959	0.928	1.02	1.01	1.03	1.03	0.987					
NCI-H2170	0.573	0.62	0.652	0.633	0.555											0.796	0.706	0.69	0.727	0.633
A549	0.29	0.292	0.379	0.338	0.343	0.53	0.544	0.416	0.589	0.446										
NCI-H522	0.484	0.549	0.572	0.511	0.703											0.578	0.569	0.508	0.571	0.489
NCI-H1650	0.676	0.93	0.887	0.758	0.345						0.208	0.208	0.204	0.22	0.2	0.312	0.405	0.36	0.33	0.304
NCI-H1648	0.953	0.926	0.768	0.732	0.766											0.489	0.373	0.412	0.425	0.217
NCI-H2342	0.409	0.407	0.467	0.452	0.424											0.44	0.556	0.44	0.455	0.397
Calu-6		0.525	0.646	0.524	0.578	1.06	1	0.889	0.942	0.93	0.963	0.937	1.01	0.971	0.942					
